{
  "source": "patent US10016389B2",
  "about": "“Method of making liposomes, liposome compositions made by the methods, and methods of using the same” (LivOn Laboratories, priority 2011, dated 2018)",
  "origin": "cited, not measured here",
  "key": {"[1]": {"test": "not given", "remark": "listed apart in the source"}, "[2]": {"test": "not given", "remark": "listed apart in the source"}, "[3]": {"test": "not given", "remark": "listed apart in the source"}, "[4]": {"conditions": "rat populations"}, "[5]": {"conditions": "1000 mg daily, 42 days"}},
  "data": [
    {"smiles": "O=C(O)CCCCC1CCSS1", "note": "(racemic) [racemic ALA, alpha lipoic acid]", "values": [
      {"measurement": "survival rate after a stroke vs untreated animals", "value": "four times greater survival rate"},
      {"measurement": "improvement of insulin sensitivity", "setting": "[1]; oral 600, 1200 or 1800 mg/day, after 4 weeks", "value": 25, "unit": "%"},
      {"measurement": "improvement of insulin-stimulated glucose disposal (insulin sensitivity)", "setting": "[1]; single intravenous infusion of 1000 mg, vs placebo infusion", "value": 50, "unit": "%"}
    ]},
    {"smiles": "O=C1O[C@H]([C@@H](O)CO)C(O)=C1O", "note": "[vitamin C, L-ascorbic acid]", "values": [
      {"measurement": "peak plasma concentrations", "setting": "[2]; 3 g orally every 4 hours, predicted by pharmacokinetic modeling", "value": 220, "unit": "µmol/L"},
      {"measurement": "half-life", "setting": "[2]; in vivo", "value": 30, "unit": "min"},
      {"measurement": "plasma concentrations", "setting": "[2]; intravenous administration", "value": "≤ 26,000 micromol/L"},
      {"measurement": "reduction of risk of cerebrovascular deaths", "setting": "[3]; Linxian trial, 120 mg daily plus molybdenum for 5-6 years, 10 years follow-up", "value": 8, "unit": "%"},
      {"measurement": "lower risk of coronary heart disease", "setting": "[3]; ≥700 mg/day, pooled analysis of nine studies", "value": 25, "unit": "%"},
      {"measurement": "oral LD50", "setting": "[4]", "value": "11,900 mg per kg"},
      {"measurement": "average fasting blood glucose levels", "setting": "[5]; fell from 169.33 mg/dl", "value": 144.80, "unit": "mg/dL"},
      {"measurement": "average LDL", "setting": "[5]; reduced from 130.95 mg/dl", "value": 125.91, "unit": "mg/dL"},
      {"measurement": "Average HbA1C", "setting": "[5]; reduced from 8,82%", "value": 7.66, "unit": "%"},
      {"measurement": "Insulin levels", "setting": "[5]; reduced from 16.91 microunits/mL", "value": 8.77, "unit": "microunits/mL"}
    ]}
  ]
}
